Assay results: patent US20120115175A1, “METHODS FOR DIAGNOSING ELEVATED RIGHT OR LEFT VENTRICULAR FILLING PRESSURE” (Tufts Medical Center, Inc., priority 2010, published 2012)
Numbered stars: 1 amine (or outer) side, 2 acyl side, 3 side chain; on linkers, the order of the positions; unused ones are H or OH. Bridge positions count the residues as written; N and C are the ends. Square brackets hold non-standard residues; d marks the D form. Peptide text beside a SMILES is read from it. I, II: the chains in the order shown. Actinocin(9to1) = Cc1c2oc3c(C)ccc(C(=O)[*:1])c3nc-2c(C(=O)[*:2])c(N)c1=O; NMeV = CN[C@H](C(=O)O)C(C)C; Sar = CNCC(=O)O

System: human cardiac fibroblasts (hCF)
Test: Cyclic mechanical stretch of human cardiac fibroblasts: endoglin mRNA (qRT-PCR), endoglin protein (Western blot), sEng release (ELISA)
Type: cell-based
Details: for stretch-induced endoglin mRNA expression: pre-treated 1 μM for 2 hours prior to mechanical stretch (10% cyclic stretch, 1 Hz), qRT-PCR
Method: As a first step towards understanding increased endoglin expression in heart failure, we exposed cardiac fibroblasts to cyclic mechanical stretch in vitro using a FlexCell apparatus. Briefly, human cardiac fibroblasts (hCF) were cultured onto silastic membranes and exposed to 10% cyclic stretch (1 Hz) for various time points in fibroblast basal media (FBM). We identified a rapid increase in sEng release by enzyme-linked immunosorbent assay (ELISA), followed by increased endoglin mRNA expression by quantitative real-time PCR (qRT-PCR) (FIG. 7).
To begin exploring the mechanism underlying stretch-induced endoglin expression, we pre-treated cultured hCF in FBM with actinomycin-D (Act-D; 1 μM), SB-431542 (an ALK-5 inhibitor; 1 μM), or anti-TGFβ1 antibodies (10 ng/mL, R&D Systems) for 2 hours prior to mechanical stretch. […] Furthermore, ERK-inhibition with 10 μM PD98059 attenuated stretch-induced mEng protein expression and sEng release by Western blot and ELISA (FIG. 9).

[1] = hCF in FBM, pre-treated 1 μM for 2 hours prior to mechanical stretch, ELISA

With `NC(=O)c1ccc(-c2nc(-c3ccc4c(c3)OCO4)c(-c3ccccn3)[nH]2)cc1` [SB-431542] the “stretch-induced endoglin mRNA expression” value (hCF in FBM) was “partially attenuated” and the sEng release [1] was “failed to inhibit”.

For `COc1cccc(-c2cc(=O)c3ccccc3o2)c1N` [PD98059], the “stretch-induced sEng release” value (hCF, 10 μM, ELISA) was “attenuated” and the “stretch-induced mEng protein expression” value (hCF, 10 μM, Western blot) was “attenuated”.

In the case of `Cc1c2oc3c(C)ccc(C(=O)N[C@@H]4C(=O)N[C@H](C(C)C)C(=O)N5CCC[C@H]5C(=O)N(C)CC(=O)N(C)[C@@H](C(C)C)C(=O)O[C@@H]4C)c3nc-2c(C(=O)N[C@@H]2C(=O)N[C@H](C(C)C)C(=O)N3CCC[C@H]3C(=O)N(C)CC(=O)N(C)[C@@H](C(C)C)C(=O)O[C@@H]2C)c(N)c1=O` [Act-D, actinomycin-D] (I: T[dV]P[Sar][NMeV] / II: T[dV]P[Sar][NMeV]; ester I:1-I:C, II:1-II:C; linker I:N-II:N via Actinocin(9to1)), the endoglin protein expression (hCF in FBM, pre-treated 1 μM for 2 hours prior to mechanical stretch) is reported as “minimal effect”, the “stretch-induced endoglin mRNA expression” value (hCF in FBM) is reported as “abolished” and the sEng release [1] is reported as “minimal effect”.
